Results on 25 compounds are retold here after US10633389B2, “CARM1 inhibitors and uses thereof” (Epizyme, Inc., priority 2013, dated 2020).

Molecules are shown by their SMILES. Some results are limits rather than exact numbers.

This assay concerns asymmetric di-methyl PABP1 in RKO cells. Kind of assay: RKO methylation assay, In Cell Western (ICW) for asymmetric di-methyl PABP1. The format is cell-based. The conditions noted are these: Homo sapiens, RKO, Cellular potencies, ICW PABP1me2a. From the text:
RKO adherent cells were purchased from ATCC (American Type Culture Collection), Manassas, Va., USA. DMEM/Glutamax medium, penicillin-streptomycin, heat inactivated fetal bovine serum, 0.05% trypsin and D-PBS were purchased from Life Technologies, Grand Island, N.Y., USA. Odyssey blocking buffer, 800 CW goat anti-rabbit IgG (H+L) antibody, and Licor Odyssey infrared scanner were purchased from Licor Biosciences, Lincoln, Nebr., USA. Asymmetric di-methyl PABP1 antibody was purchased from Cell Signaling Technology, Danvers, Mass., USA. Methanol was purchased from VWR, Franklin, Mass., USA. 10% Tween 20 was purchased from KPL, Inc., Gaithersburg, Md., USA. Paraformaldehyde (PFA) was purchased from EM Sciences. DRAQ5 was purchased from Biostatus Limited, Leicestershire, UK.
RKO adherent cells were maintained in growth medium (DMEM/Glutamax medium supplemented with 10% v/v heat inactivated fetal bovine serum and 100 units/mL penicillin-streptomycin) and cultured at 37° C. under 5% CO2.
Cell treatment, In Cell Western (ICW) for detection of asymmetric di-methyl PABP1 and DNA content: RKO cells were seeded in assay medium at a concentration of 30,000 cells per mL to a poly-D-lysine coated 384 well culture plate (BD Biosciences 356697) with 50 VL per well. Compound (100 nL) from a 96-well source plate was added directly to 384 well cell plate. Plates were incubated at 37° C., 5% CO2 for 48 hours. After two days of incubation, plates were brought to room temperature outside of the incubator for ten minutes and blotted on paper towels to remove cell media. Cells were fixed for 20 minutes at room temperature by adding 50 ul of 8% PFA followed by aspiration of supernatant with the Biotek EL406 plate washer. Cells were then permeabilized by addition of 50 μL of ice cold 100% methanol directly to each well and incubated for 30 min at room temperature. After 30 min, plates were transferred to a Biotek EL406 plate washer and washed 2 times with 100 μL per well of wash buffer (1×PBS). Next 60 μL per well of Odyssey blocking buffer (Odyssey Buffer with 0.1% Tween 20 (v/v)) were added to each plate and incubated 1 hour at room temperature. Blocking buffer was removed and 20 μL per well of primary antibody was added (asymmetric-methyl PABP1) diluted 1:400 in Odyssey buffer with 0.1% Tween 20 (v/v)) and plates were incubated overnight (16 hours) at 4° C. Plates were washed 5 times with 100 μL per well of wash buffer. Next 20 μL per well of secondary antibody was added (1:800 800 CW goat anti-rabbit IgG (H+L) antibody, 1:2000 DRAQ5 in Odyssey buffer with 0.1% Tween 20 (v/v)) and incubated for 1 hour at room temperature. The plates were washed 5 times with 100 μL per well wash buffer then 2 times with 100 μL per well of water. Plates were allowed to dry at room temperature then imaged on the Licor Odyssey machine which measures integrated intensity at 700 nm and 800 nm wavelengths. Both 700 and 800 channels were scanned.
First, the ratio for each well was determined by:
Each plate included fourteen control wells of DMSO only treatment (minimum inhibition) as well as fourteen control wells for maximum inhibition treated with 20 μM of a reference compound. The average of the ratio values for each control type was calculated and used to determine the percent […] for each test well in the plate. Reference compound was serially diluted three-fold in DMSO for a total of nine test concentrations, beginning at 20 μM.
Percent inhibition was determined and IC50 curves were generated using triplicate wells per concentration of compound. […]
Take `CNCC(O)COc1cccc(-c2nc(NCC3(OC)CCOCC3)c(C)c(-c3c(C)noc3C)n2)c1` (stereo not shown) [Example 300-1a]: the half-maximal inhibitory concentration (IC50) (in general, the concentration at which inhibition is half-maximal) is below 5 µM. To `CNCC(O)COc1cccc(-c2nc(NC3CCOC3)c(C)c(N3CCN(C(=O)OC)C(C)(C)C3)n2)c1` (stereo not shown) [Example 447-1a] belongs 10 to 20 µM. To `CNC[C@H](O)COc1ccc(Cl)c(-c2nc(-c3c(C)noc3C)c(C)c(N3CCN(C)C(C(F)F)C3)n2)c1` (stereo partly shown) [Example 74-3] belongs below 5 µM; to `CCOC(=O)N1CCC(Nc2nc(-c3cccc(OCC(O)CNC)c3)nc(-c3c(C)noc3C)c2C)CC1` (stereo not shown) [Example 189-1a], below 5 µM. Turning to `CNCC(O)COc1cc(Cl)cc(-c2nc(-c3ccn4cnnc4c3)c(C)c(N(C)C3CCOCC3)n2)c1` (stereo not shown) [Example 70-1], the IC50 was in the range of 10 to 20 µM. As for `CNCC(O)COc1cccc(-c2nc(NC3CCOC3)c(C)c(N3CCN(CC(F)F)C(C)(C)C3)n2)c1` (stereo not shown) [Example 457-1a], the figure is 10 to 20 µM; as for `CNCC(O)COc1cccc(-c2nc(-c3c(C)noc3C)c(C)c(N3C[C@H]4CC[C@@H](C3)N4C)n2)c1` (stereo partly shown) [Example 116-1a], 5 to 10 µM; as for `CNCC(O)COc1cccc(-c2nc(N3CCC[C@H](O)C3)cc(N(C)C3CCOCC3)n2)c1` (stereo partly shown) [Example 538-1a], 10 to 20 µM.

In the case of `CCS(=O)(=O)N1CCC(Nc2nc(-c3cccc(OCC(O)CNC)c3)nc(-c3c(C)noc3C)c2C)C1` (stereo not shown) [Example 197-1a], the IC50 was below 5 µM. To `CNCC(O)COc1cccc(-c2nc(N[C@H]3CCOC3)cc(-c3c(C)noc3C)n2)c1` (stereo partly shown) [Example 13-1a] belongs 5 to 10 µM; to `CNCC(O)COc1cccc(-c2nc(NC3(C)CCOCC3)c(C)c(-c3c(C)noc3C)n2)c1` (stereo not shown) [Example 101-1a], below 5 µM; to `CCS(=O)(=O)N1CCC(CNc2nc(-c3cccc(OCC(O)CNC)c3)nc(-c3c(C)noc3C)c2C)CC1` (stereo not shown) [Example 192-1a], below 5 µM. To `CNCC(O)COc1cccc(-c2nc(C(C)=O)c(C)c(N(C)C3CCOCC3)n2)c1` (stereo not shown) [Example 544-1a] belongs 10 to 20 µM. `CNC[C@@H](O)COc1ccc(F)c(-c2nc(-c3c(C)noc3C)cc(N3Cc4nccnc4C3)n2)c1` [Example 274-3] yielded an IC50 below 5 µM. Regarding `CNCC(O)COc1cccc(-c2nc(-c3c(C)noc3C)cc(N3CCN(C(=O)N(C)C)CC3)n2)c1` (stereo not shown) [Example 120-1a], the 50% inhibitory concentration (IC50) is below 5 µM. To `Cc1noc(C)c1-c1cc(NC2CCOCC2)nc(-c2cccc(OC[C@H](O)CN)c2)n1` [Example 16-1a] belongs 5 to 10 µM. As to `CNC[C@@H](O)COc1ccc(Cl)c(-c2nc(-c3c(C)noc3C)c(C)c(N3CC4(CCN(C5CC5)CC4)C3)n2)c1` [Example 108-3], the IC50 was below 5 µM. To `CNCC(O)COc1cccc(-c2nc(NC3CCOCC3)cc(-c3ccc4c(c3)OCCO4)n2)c1` (stereo not shown) [Example 657-1a] belongs at least 20 µM.

`CNC[C@@H](O)COc1ccc(Cl)c(-c2nc(N[C@H]3C[C@H](OC)C3)c(C)c(-c3c(C)noc3C)n2)c1` [Example 143-3] registered a half-inhibitory concentration (IC50) below 5 µM. As for `CNCC(O)COc1cccc(-c2nc(N3CCN(C)[C@@H](C)C3)cc(N(C)C3CCOCC3)n2)c1` (stereo partly shown) [Example 502-1a], the figure is below 5 µM.

`CCOC(=O)N1CCOC[C@@H]1CNc1nc(-c2cccc(OC[C@@H](O)CNC)c2)nc(-c2c(C)noc2C)c1C` [Example 278-1a] yielded an IC50 below 5 µM. Compound `CNCC(O)COc1cccc(-c2nc(NC3CN(C(=O)OC)C3)c(C)c(-c3c(C)noc3C)n2)c1` (stereo not shown) [Example 275-1a] registered an IC50 of 10 to 20 µM. As for `CCOC(=O)N1CCC(N(C)c2cc(-c3c(C)noc3C)nc(-c3cccc(OCC(O)CNC)c3)n2)CC1` (stereo not shown) [Example 172-1a], the figure is below 5 µM. `CNCC(O)COc1cccc(-c2nc(-c3c(C)noc3C)c(C)c(N3CCN4C(=O)OC[C@@H]4C3)n2)c1` (stereo partly shown) [Example 110-1a] had an IC50 of 5 to 10 µM. `CNCC(O)COc1cccc(-c2nc(-c3c(C)noc3C)c(C)c(N3CCN(C(=O)OCCF)CC3)n2)c1` (stereo not shown) [Example 121-1a] came in with a concentration for half-maximal inhibition (IC50) below 5 µM.
